For one series, the system named is HIV-1IIIB. The experiment in a line: HIV cytoprotection assay, HIV-1IIIB in CEM-SS cells (MTS). The series is classed as cell-based. The conditions noted are these: for IC50: read-out: IC50 (concentration inhibiting virus replication by 50%). The procedure:
(§1) For the HIV cytoprotection assay, CEM-SS cells were used and the viruses HIV-1IIIb, HIV-1RF, or HIV-2ROD.
(§2) Briefly, virus and cells were mixed in the presence of a test compounds and incubated for 6 days. […] Each assay plate contained the following controls: cell control wells (cells only), virus control wells (cells plus virus), compound toxicity control wells (cells plus compound only), compound calorimetric control wells (compound only), as well as the experimental wells (compound plus cells plus virus). Cytoprotection and compound cytotoxicity were assessed by MTS (CellTiter® 96 Reagent, Promega, Madison Wis.) dye reduction, and the IC50 (concentration inhibiting virus replication by 50%), TC50 (concentration resulting in 50% cell death) and a calculated TI (therapeutic index TC50/IC50) were obtained. Each assay included the HIV reverse transcriptase inhibitor AZT as a positive control.

Series [1] is described as follows: Compound cytotoxicity in CEM-SS cells (MTS). The conditions noted are these: human, read-out: TC50 (concentration resulting in 50% cell death). The class given is cell-based. The procedure: as §1, §2
Another series relates to HIV-2ROD. The experiment in a line: HIV cytoprotection assay, HIV-2ROD in CEM-SS cells (MTS). The series is classed as cell-based. The conditions noted are these: for IC50: read-out: IC50 (concentration inhibiting virus replication by 50%). As for the experimental part:
as §1, §2

Another series has as its target T1, GST tagged hPOSH (Homo sapiens, UniProt Q7Z6J0).
T1 construct: a fused GST-RING subunit of POSH protein
T1 sequence (Q7Z6J0 12-53 limits assumed): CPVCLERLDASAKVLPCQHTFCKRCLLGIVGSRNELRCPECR
Briefly: HTS TR-FRET assay of POSH autoubiquitination. The series is classed as biochemical. The conditions noted are these: GST tagged hPOSH with E1, UbCH5c, ubiquitin-cryptate, read-out: IC50 (POSH autoubiquitination, in vitro assay). The procedure:
In order to test compounds as inhibitors of POSH, a ubiquitin protein ligase (E3) containing a RING domain that mediates its own ubiquitination in a RING finger-dependent manner in the presence of E1 and E2, a HTS (high-throughput screening) homogeneous TR-FRET (Time-Resolved Fluorescence Resonance Energy Transfer) assay was conducted to monitor POSH autoubiquitination.
The assay employs an ubiquitin-activating enzyme (E1) and an ubiquitin-conjugating enzyme (E2), a fused GST-RING subunit of POSH protein and two fluorophore-conjugated detection reagents, namely anti-GSTXL665 and europium cryptate-labeled ubiquitin. This homogeneous assay is based on FRET between a Eu^3+ cryptate donor and a second fluorescent label (acceptor), allophycocyanin. Allophycocyanin, a 105 kDa phycobiliprotein, is crosslinked to ensure its stability.
The ubiquitination of POSH by ubiquitin cryptate and binding of the anti-GST tagged XL665 brings the fluorophores into close proximity allowing FRET reaction to occur.
Self-ubiquitination of hPOSH was determined by homogenous time-resolved fluorescence resonance energy transfer assay (TR-FRET). […]
where: S=actual fluorescence, B=Fluorescence obtained in parallel incubation without […], C=Fluorescence obtained in reaction without added compounds. […]
On the technique in general: TR-FRET usually uses a lanthanide donor and a delayed reading to cut background.

The test system of series [2] is HIV-1 p24 release from Jurkat cells. Briefly: Assay for virus release (HIV-1 p24 / VLP release from transfected Jurkat cells). The class given is cell-based. The conditions noted are these: Human immunodeficiency virus 1, Jurkat, 24 h, read-out: IC50 in the virus release assay. The procedure: The POSH inhibitor Compound 1 was tested for its efficiency of viral budding and GAG expression and processing in treated and untreated Jurkat cells. The concentration of extracellular GAG p24 was used as an indication of viral budding.
Jurkat cells were incubated with Compound 1 (5 μM) for either 1 or 3 days. The next day, cells were transfected with the plasmid pNLenyl (2 μg/ml). Virus-like particle (VLP) release was determined one day after transfection as follows: the culture medium of virus-expressing cells was collected and centrifuged at 500×g for 10 minutes. The resulting supernatant was passed through a 0.45 μm-pore filter and the filtrate was centrifuged at 14,000×g for 2 hours at 4° C. The corresponding cells were washed three times with phosphate-buffered saline (PBS) and then solubilized by incubation on ice for 15 minutes in lysis buffer containing the following components: […] Hepes-NaOH, (pH 7.5), 150 mM NaCl, 1.5 mM MgCl2, 0.3% NP-40, 0.5% sodium deoxycholate, 1 mM EDTA, 1 mM EGTA and 1:200 dilution of protease inhibitor cocktail (EMD Biosciences, Inc.). The cell detergent extract was then centrifuged for 15 minutes at 14,000×g at 4° C. […] Enhanced Chemi-Luminescence (ECL) (Amersham Biosciences, Corp.) was then detected by fluorescence imaging (Typhoon Instrument, Amersham Biosciences, Corp.).

Setting [3] is: Human immunodeficiency virus 1, 144 h, HIV-1IIIB, CEM-SS cells, 6 days.

SMILES strings stand for the structures. Like-named read-outs stand apart in the source and are kept apart here.

As for `O=C(Nc1ccc(S(=O)(=O)Nc2ncccn2)cc1)/C(=C\c1cccs1)NC(=O)c1cccs1` [Compound 2], the “Antiviral Index (TI), TC50/IC50” value in the series on HIV-1IIIB (HIV-1IIIB, CEM-SS cells) is reported as 28.5; with HIV-2ROD (HIV-2ROD, CEM-SS cells) it was above 10.2. The IC50 worked out at 3.99 µM with HIV-1IIIB (setting [3]) and 29.5 µM in the series with HIV-2ROD (Human immunodeficiency virus 2, 144 h, HIV-2ROD, CEM-SS cells, 6 days). The CC50 at 6 days in series [1] (Table 1 (HIV-1IIIB experiment)) was 114 µM; in series [1] (Table 2 (HIV-2ROD experiment)), above 300 µM.

Regarding `Cc1cc(C)nc(NS(=O)(=O)c2ccc(NC(=O)/C(=C\c3cccs3)NC(=O)c3cccs3)cc2)n1` [Compound 1], the IC50 at GST tagged hPOSH turned out to be 2 µM; in series [2] it was 48 µM; in the series on HIV-1IIIB (Human immunodeficiency virus 1, CEM-SS, 144 h), 48 µM; in the series on HIV-2ROD (Human immunodeficiency virus 2, CEM-SS, 144 h) it was 52.8 µM. Besides, the “Antiviral Index (TI), TC50/IC50” value in the series on HIV-1IIIB (HIV-1IIIB, CEM-SS cells) is reported as above 2.07; in the series on HIV-2ROD (HIV-2ROD, CEM-SS cells), above 5.68. Moreover, the CC50 at 6 days in series [1] (Table 1 (HIV-1IIIB experiment)) is above 100 µM; in series [1] (Table 2 (HIV-2ROD experiment)), above 300 µM.

`Cc1ccnc(NS(=O)(=O)c2ccc3c(c2)CCN3C(=O)/C(=C\c2cccs2)NC(=O)c2cccs2)n1` [Compound 5]: in the series on HIV-1IIIB (HIV-1IIIB, CEM-SS cells), the “Antiviral Index (TI), TC50/IC50” value is above 105; the “Effectiveness as anti-HIV-1IIIB agent compared to Compounds 1 and 2” value is recorded as “far more effective”. In addition, in the series with HIV-1IIIB (setting [3]), the IC50 was found to be 2.85 µM. The CC50 at 6 days in series [1] (Table 1 (HIV-1IIIB experiment)) was above 300 µM.

The values above are taken from US8283355B2, “Pyrimidine derivatives as POSH and POSH-AP inhibitors” (Proteologics, Ltd., priority 2006, dated 2012).
